Experimental data from the supplement of paper PMC11061612.

What was measured:
Assay in all cases: combination Emax (second highest fraction inhibited in the dose matrix, 72 h); higher = more inhibition; extreme values may be limits of the assay
CAL-78 (Chondrosarcoma) = test system: CAL-78 (Chondrosarcoma)
Summary of the method: (§1)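 Cell lines grown in DMEM/F12 or RPMI with 10% FBS were plated in 1536-well plates and held 24 hours at 37°C, 5% CO2 before 72 hours of exposure to two-drug dose matrices, with DMSO typically at 0.2%. CellTiter-Glo 2.0 luminescence gave viability, which was converted to inhibition. Vehicle wells were set to 0 and blank wells to 1. Combination Emax is the second-highest inhibition in the matrix, and Bliss excess is the observed combination effect minus the expected EA + EB − EA·EB, where EA and EB are the single-agent effects.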

[1] = test system: CFPAC-1 (Pancreatic Carcinoma)
Summary of the method: as §1

[2] = test system: COR-L23 (Non-Small Cell Lung Carcinoma)
Summary of the method: as §1

[3] = test system: COR-L95 (Small Cell Lung Carcinoma)
Summary of the method: as §1

ES7 (Ewing's Sarcoma) = test system: ES7 (Ewing's Sarcoma)
Summary of the method: as §1

[4] = test system: G-292-Clone-A141B1 (Osteosarcoma)
Summary of the method: as §1

[5] = test system: HCC2157 (Breast Carcinoma)
Summary of the method: as §1

[6] = test system: HPAC (Pancreatic Carcinoma)
Summary of the method: as §1

[7] = test system: HT-29 (Colorectal Carcinoma)
Summary of the method: as §1

J82 (Bladder Carcinoma) = test system: J82 (Bladder Carcinoma)
Summary of the method: as §1

[8] = test system: KARPAS-620 (Plasma Cell Myeloma)
Summary of the method: as §1

[9] = test system: LU-99A (Non-Small Cell Lung Carcinoma)
Summary of the method: as §1

[10] = test system: MDA-MB-231 (Breast Carcinoma)
Summary of the method: as §1

[11] = test system: NALM-6 (B-Lymphoblastic Leukemia)
Summary of the method: as §1

[12] = test system: SNU-C5 (Colorectal Carcinoma)
Summary of the method: as §1

[13] = test system: SUIT-2 (Pancreatic Carcinoma)
Summary of the method: as §1

[14] = test system: SW1088 (Low Grade Glioma)
Summary of the method: as §1

[15] = test system: SW1783 (Low Grade Glioma)
Summary of the method: as §1

[16] = test system: TE-5 (Esophageal Squamous Cell Carcinoma)
Summary of the method: as §1

[17] = test system: TGBC24TKB (Biliary Tract Carcinoma)
Summary of the method: as §1

SMILES	combination Emax (CAL-78 (Chondrosarcoma))	combination Emax [1]	combination Emax [2]	combination Emax [3]	combination Emax (ES7 (Ewing's Sarcoma))	combination Emax [4]	combination Emax [5]	combination Emax [6]	combination Emax [7]	combination Emax (J82 (Bladder Carcinoma))	combination Emax [8]	combination Emax [9]	combination Emax [10]	combination Emax [11]	combination Emax [12]	combination Emax [13]	combination Emax [14]	combination Emax [15]	combination Emax [16]	combination Emax [17]
NC1(C(=O)N[C@@H](CCO)c2ccc(Cl)cc2)CCN(c2ncnc3[nH]ccc23)CC1 [Capivasertib] + CCN(CCO)CCCOc1ccc2c(Nc3cc(CC(=O)Nc4cccc(F)c4)[nH]n3)ncnc2c1 [AZD2811] (first compound max 10 µM, 7x7, partner max 1 µM)	0.512	0.319	0.474	0.172	0.86	0.245	1	0.395	0.427	0.482	0.798	0.559	0.349	0.907	0.501	0.177	0.642	0.469	0.339	0.58
Cc1c2c(nn1C)CSCc1cc(n(C)n1)CSc1cc(c3ccccc3c1)OCCCc1c(C(=O)O)n(C)c3c-2c(Cl)ccc13 [AZD5991] + C=CCn1c(=O)c2cnc(Nc3ccc(N4CCN(C)CC4)cc3)nc2n1-c1cccc(C(C)(C)O)n1 [AZD1775] (first compound max 1 µM, partner max 1 µM)	0.853	0.555	0.605	0.757	0.732	0.262	0.979	0.857	0.877	0.314	1	0.428	0.418	0.878	0.732	0.555	0.352	0.322	0.536	0.672
NC1(C(=O)N[C@@H](CCO)c2ccc(Cl)cc2)CCN(c2ncnc3[nH]ccc23)CC1 [Capivasertib] + Cn1cnc2c(F)c(Nc3ccc(Br)cc3Cl)c(C(=O)NOCCO)cc21 [Selumetinib] (first compound max 10 µM, 7x7, partner max 10 µM)	0.452	0.491	0.609	0.22	0.448	0.371	1	0.783	0.783	0.413	0.96	0.709	0.751	0.697	0.656	0.646	0.618	0.415	0.56	0.556
CC1(C)CCC(CN2CCN(c3ccc(C(=O)NS(=O)(=O)c4ccc(NCC5CCOCC5)c([N+](=O)[O-])c4)c(Oc4cnc5[nH]ccc5c4)c3)CC2)=C(c2ccc(Cl)cc2)C1 [Venetoclax] + CCN(CCO)CCCOc1ccc2c(Nc3cc(CC(=O)Nc4cccc(F)c4)[nH]n3)ncnc2c1 [AZD2811] (first compound max 1 µM, 7x7, partner max 1 µM)	0.328	0.259	0.172	0.743	0.911	0.235	0.762	0.361	0.214	0.177	1	0.299	0.226	0.97	0.19	0.187	0.474	0.333	0.29	0.525
COc1cccc2c1C(=O)c1c(O)c3c(c(O)c1C2=O)C[C@@](O)(C(=O)CO)C[C@@H]3O[C@H]1C[C@H](N)[C@H](O)[C@H](C)O1 [Doxorubicin] + Cc1cc2ncnn2cc1Nc1ncc2c(n1)n(C1CCOCC1)c(=O)n2C [AZD7648] (first compound max 1 µM, 7x7, partner max 10 µM)	0.542	0.586	0.432	0.865	1	0.247	0.925	0.633	0.657	0.41	0.681	0.751	0.786	1	0.724	0.646	0.477	0.481	0.678	0.318
